Reference: patent US12668830B2, “Pharmaceutical compositions for prevention and/or treatment of infections and antibacterial-induced dysfunctions” (priority 2018, dated 2026)
Entries after “also recorded” stand apart in the source; their conditions may differ. Where two headings read alike, the source gives them in different places.

Key:
[1] = test system: E. coli BW mutants (ΔacrA, respiration-defective); assay type: cell-based, Escherichia coli; conditions: ciprofloxacin 70% MIC
Protocol: Aminoglycosides depend on PMF-energized uptake and thus respiratory complexes; ciprofloxacin is effluxed by AcrAB-TolC. […] Bliss interaction scores (ε) were calculated as in the screen and are represented by the mean and standard deviation across 3-8 replicates. d) Gentamicin and ciprofloxacin antagonism networks for E. coli BW. Nodes represent drugs colored according to targeted cellular process (as FIG. 1a). Full and dashed edges represent antagonistic drug-drug interactions for which intracellular antibiotic concentration was and was not measured, respectively. […] The bars for fluoroquinolones and aminoglycosides account for an extrapolation of antagonistic interactions to all other members of the two classes, assuming they behave the same as ciprofloxacin and gentamicin, respectively.
The kanamycin resistance cassettes was excised when necessary using the plasmid pCP20. The plasmid used for mdfA overexpression was obtained from the mobile E. coli ORF library.

[2] = test system: E. coli BW and E. coli iAi1; assay: Benchmarking 8×8 checkerboard assays (Bliss / Loewe additivity); assay type: cell-based, Escherichia coli; conditions: 8×8 checkerboards
Excerpt: For combinations between ß-lactams for which high-resolution 8×8 checkerboards with sufficient growth inhibition was available in the validation dataset, Loewe additivity was used to confirm the interactions. Drug-drug interactions were inferred by the shape of the isoboles (lines of equal growth) in two-dimensional drug concentration plots. […] To interpolate IC50 concentrations (or other ICn %), a logistic model was used to fit the growth for each concentration of the first drug across different concentrations of the second drug. The null-hypothesis of this model is represented by the additivity line: a linear isobole connecting equal individual IC's by the two drugs.
As in the screen, growth was assessed based on OD595 nm at early stationary phase for the no drug controls. The time-points used in the screen were used again here for screen strains, whereas 8 hours were used for all E. coli and K. pneumoniae MDR isolates. Fitness was calculated by dividing OD595 nm after single or double drug treatment by no drug treatment for each individual checkerboard. Bliss scores (ε) were calculated for all concentration ratios tested per drug combination, resulting in 49 ε values per drug pair. […] Antagonism was called when the median of the & distribution was above 0.1 or the Q3 was above 0.15. […]

[3] = test system: E. coli, S. typhimurium and P. aeruginosa; assay: Screen across all three species / conservation of drug-drug interactions; assay type: cell-based; conditions: for Antibacterial activity / growth inhibition of the drug on its own: single drug, in the screen; for General effect in combinations: conserved interaction network
Protocol: Conservation of drug-drug interactions between strains of the same species was assessed by Pearson correlation of the interactions scores ε. For potentially non-conserved drug-drug interactions, the expected fitness distributions of the two strains were taken into account.
To assess the cross-species conservation of drug-drug interactions, the inventors took into account only drug pairs that were probed in all three species. […] Interactions were then compared across the three species. Cases in which an interaction between drugs changed sign across species (conflicting interactions; ˜7% of all interactions) were excluded from the comparative “across-species” Venn diagram (FIG. 3D). Note that with current analysis a given drug-drug interaction may be conserved across species, but not conserved within the species.
Conservation at the single drug level was defined based on shared resistance and sensitivity. A strain was considered sensitive to a given drug if one of the drug concentrations inhibited growth for at least 30%.

[4] = test system: MDR clinical isolates E. coli 124, 1027, 1334; assay: 8×8 checkerboard assays against MDR clinical isolates; assay type: cell-based, Escherichia coli
Excerpt: (§1) For each of the three Gram-negative species profiled in this study, the inventors used two broadly used and sequenced strains: Escherichia coli K-12 BW25113 and O8 IAI1, Salmonella enterica serovar typhimurium LT2 and 14028s, Pseudomonas aeruginosa PAO1 and PA14. To validate selected synergies, the inventors profiled 6 MDR clinical Enterobacteriaceae isolates recovered from human patient specimens: E. coli 124, 1027, 1334 and Klebsiella pneumoniae 718, 929 and 980.

[5] = test system: E. coli (BW25113 wildtype and mutants); assay: Minimal Inhibitory Concentration (MIC) calculation; assay type: cell-based, Escherichia coli; conditions: for Effect on MIC of chloramphenicol / Effect on MIC of ciprofloxacin: vanillin 150 μg/ml, aspirin 500 μg/ml, E. coli; for MIC: Escherichia coli
Protocol: MICs to all drugs were computed using a logistic fit of growth (OD595 nm for 8 h) over 2-fold serial dilutions of the antibiotic concentrations for all strains used for the high throughput screening and follow-up experiments.

[6] = test system: E. coli BW25113; assay: Intracellular spectinomycin concentration with [3H]-spectinomycin; assay type: cell-based, Escherichia coli; conditions: vanillin 150 μg/ml; mdfA-dependent
Protocol: Intracellular spectinomycin was quantified by measuring [3H]-spectinomycin (1 μCi/mg; Hartmann Analytic Corp.). Overnight cultures of E. coli BW25113 were diluted 1:1,000 into 1 ml LB with and without vanillin (150 μg/ml) and grown to OD595 nm˜0.5. 50 μg/ml [3H]-spectinomycin:spectinomycin 1:100 was added and the cultures were incubated for 1 h. Cultures were pelleted, washed twice with PBS with 50 μg/ml non-labeled spectinomycin, re suspended in 1% SDS and incubated for 20 min at 85° C. The lysate was mixed with 8 ml liquid scintillation (Perkin Elmer ULTIMA Gold) and counted for 1 min using a Perkin Elmer Tri-Carb 2800TR. Measured radioactivity was normalized to cell number as measured by OD595 nm.

[7] = test system: marA; assay: Quantitative RT-PCR of marA expression; assay type: cell-based, Escherichia coli; conditions: vanillin 150 μg/ml
Protocol: Overnight cultures of E. coli BW25113 and the marR deletion mutant were diluted 1:2,000 into 20 ml LB and grown at 37° C. to OD595 nm˜0.2. Aspirin or vanillin were added to the cultures to 500 and 150 μg/ml final concentration respectively (DMSO was added in the control), followed by a 30 min incubation period at 37° C. with agitation. Cells were harvested and RNA extraction was done with the RNeasy Protect Bacteria Mini Kit (Qiagen) according to manufacturer's directions. cDNA was prepared for qRT-PCR using SuperScript™ III Reverse Transcriptase (Thermo Fisher Scientific). marA and mdfA expression levels were estimated by quantitative RT-PCR using SYBR™ Green PCR master mix following the manufacturer's instructions (Thermo Fisher Scientific). Primer sequences for marA and recA are previously described. All experiments were conducted in at least three biological replicates, and relative expression levels were estimated according to Livak et al., using recA expression as reference.

[8] = test system: AcrA; assay: Immunoblot analysis for AcrA protein quantification; assay type: cell-based, Escherichia coli; conditions: vanillin 150 μg/ml; marA-dependent
Protocol: Overnight cultures of E. coli BW25113 and the ΔmarA mutant were diluted 1:1,000 into 50 ml LB containing 500 μg/ml aspirin, 150 μg/ml vanillin or DMSO (drugs solvent control), followed by growth with agitation at 37° C. to OD595 nm˜0.5. Cells were washed in PBS containing corresponding drugs or DMSO, then resuspended to match OD595 nm=1. Cell pellets were resuspended in Laemmli buffer and heated to 95° C. for 3 minutes followed by immunoblot analysis with a-AcrA polyclonal antiserum (gift from K. M. Pos) at 1:200,000 dilution. Primary antiserum was detected using anti-rabbit HRP (A0545 Sigma) at 1:5,000 dilution. Pixel densities of bands were quantified using ImageJ. At least five different biological replicates were blotted and summarized by their mean and standard deviation.

[9] = test system: MDR clinical isolates Klebsiella pneumoniae 718, 929 and 980; assay: 8×8 checkerboard assays against MDR clinical isolates; assay type: cell-based; conditions: MDR K. pneumoniae isolates
Excerpt: as §1

[10] = test system: E. coli MG1655; assay: Intracellular gentamicin concentration with [3H]-gentamicin; assay type: cell-based, Escherichia coli; conditions: gentamicin 5 μg/ml plus second drug
Protocol: Intracellular gentamicin was quantified by measuring [3H]-gentamicin (1 mCi/ml; Hartmann Analytic Corp.), as previously described. Overnight cultures of E. coli MG1655 (ther parental stain of BW25113) were diluted 1:1,000 into 5 ml LB and grown to OD595 nm˜0.1. [3H]-gentamicin was diluted in cold gentamicin to get a 5 mg/ml (0.1 mCi/ml) stock solution, which was then added to the culture at a final concentration of 5 μg/ml (0.1 μCi/ml), simultaneously with the second drug: Berberine (200 μg/ml), Erythromycin (15 μg/ml), Metformin (13000 μg/ml), Procaine (6000 μg/ml), Loperamide (400 μg/ml), Benzalkonium (5 μg/ml). […] Cultures were then incubated at 37° C. on a rotary shaker. At 0, 0.5, 1, 1.5 and 2 h time-points, 500 μl aliquots were removed and applied to a 0.45 μm-pore-size HAWP membrane filter (Millipore) pretreated with 1 ml of unlabeled gentamicin (250 μg/ml). Filters were washed with 10 ml of 1.5% NaCl, placed into counting vials, and dried for 30 min at 52° C. 8 ml of liquid scintillation were then added to the dried filters and vials were incubated overnight at room temperature before being counted for 5 min. Gentamicin uptake efficiency is expressed as total accumulation of gentamicin (ng) per 108 cells, and plotted here for the final timepoint (2 h) for simplicity.

How did the “Antagonism with ciprofloxacin in mutant” value [1] turn out when C[n+]1ccc(-c2cc[n+](C)cc2)cc1 [paraquat] was run?
The value was “resolved”.

Which “Growth inhibition reached by single drug” value [2] does the source give for CCN1CCN(C(=O)N[C@@H](C(=O)N[C@@H]2C(=O)N3[C@@H]2SC(C)(C)[C@@H]3C(=O)O)c2ccccc2)C(=O)C1=O [Piperacillin, piperacillin] here?
Its value is “did not reach 50% growth inhibition”.

How did the “Antibacterial activity / growth inhibition of the drug on its own” value [3] turn out when COc1cc(C=O)ccc1O [vanillin] was run?
The value was “no antibacterial activity”.

What about the “Effect on activity of spectinomycin” value ([4]; E. coli MDR isolates) of the same molecule?
The value was “potentiated”.

And the “Effect on MIC of chloramphenicol” value [5]?
The value was “increase”.

And the “Effect on MIC of ciprofloxacin” value [5]?
Its value is “increase”.

And the “Effect on intracellular spectinomycin concentration” value [6]?
Its value is “increased; also recorded: accumulation”.

And the marA expression [7]?
Its marA expression is “overexpression”.

What about the AcrA protein levels [8] of the same molecule?
Its AcrA protein levels is “increases”.

Which results are given for CN[C@@H]1[C@H](O)[C@H](NC)[C@H]2O[C@@]3(O)C(=O)C[C@@H](C)O[C@H]3O[C@@H]2[C@H]1O [spectinomycin]?
Spectinomycin MIC change upon addition of vanillin ([5]; 100 μg/ml vanillin, wildtype E. coli BW and knockouts of AcrAB-TolC members or MarA): decreases; MIC ([5]; BW25113, read-out: MIC of spectinomycin, E. coli, with vanillin (65 μg/ml)): ~15 µg/mL; MIC ([5]; BW25113, read-out: MIC of spectinomycin, largely resistant E. coli, without vanillin): > 30 µg/mL; Spectinomycin MIC change ([5]; deletion of mdfA): increased; Spectinomycin sensitivity (dose response) ([5]; overexpression of mdfA (pmdfA) vs E. coli BW, MIC does not change): increased spectinomycin sensitivity; Increase of spectinomycin MIC ([5]; with 500 μg/ml aspirin): ~3 fold; Decrease of spectinomycin MIC ([5]; with vanillin, mild overexpression of mdfA (pmdfA), comparing to MIC of combination in wildtype): ~2 fold

How did the “Antagonism with ciprofloxacin in mutant” value [1] turn out when Cn1c(=O)c2c(ncn2C)n(C)c1=O [caffeine] was run?
Its value is “resolved”.

With CCN(CC)CCOC(=O)c1ccc(N)cc1 [procaine] as the molecule, how does the “General effect in combinations” value [3] read?
Its value is “general potentiating effect”.

And the “Antibacterial activity / growth inhibition of the drug on its own” value [3]?
Its value is “did not inhibit bacterial growth on its own”.

What about the “Effect on activity of doxycycline” value ([4]; MDR E. coli isolates) of the same molecule?
The value was “resensitized”.

What about the “Effect on activity of fusidic acid” value ([4]; MDR E. coli isolates) of the same molecule?
Its value is “resensitized”.

And the “Effect on activity of doxycycline” value [9]?
Its value is “resensitized”.

What about the “Effect on activity of fusidic acid” value [9] of the same molecule?
The value was “resensitized”.

For CN(C)C(=O)C(CCN1CCC(O)(c2ccc(Cl)cc2)CC1)(c1ccccc1)c1ccccc1 [Loperamide, loperamide], which “General effect in combinations” value [3] is on record?
The value was “general potentiating effect”.

What about the “Effect on activity of colistin” value ([4]; MDR E. coli isolates) of the same molecule?
The value was “potentiated”.

And the “Effect on activity of doxycycline” value ([4]; MDR E. coli isolates)?
The value was “potentiated”.

And the “Effect on activity of colistin” value [9]?
The value was “potentiated”.

What about the “Effect on activity of doxycycline” value [9] of the same molecule?
Its value is “potentiated”.

For COc1cc(/C=C/C(=O)CC(=O)/C=C/c2ccc(O)c(OC)c2)ccc1O [curcumin], which “Antagonism with ciprofloxacin in mutant” value [1] is on record?
Its value is “remain largely intact”.

COc1ccc(CCN(C)CCCC(C#N)(c2ccc(OC)c(OC)c2)C(C)C)cc1OC (stereo not shown) [verapamil] was tested. Which “General effect in combinations” value [3] did it give?
The value was “general potentiating effect”.

How did the “Effect on intracellular gentamicin concentration” value [10] turn out when benzalkonium was run?
The value was “decreases”.

What about the “Antagonism with ciprofloxacin in mutant” value [1] of the same molecule?
Its value is “remain largely intact”.

CC(=O)Oc1ccccc1C(=O)O [aspirin, acetylsalicylic acid] was tested. Which “Effect on MIC of chloramphenicol” value [5] did it give?
The value was “increase”.

What about the “Effect on MIC of ciprofloxacin” value [5] of the same molecule?
Its value is “increase”.
